Results on six compounds are retold here after ChEMBL document CHEMBL4680217, “Discovery of PROTAC BCL-X degraders as potent anticancer agents with low on-target platelet toxicity” (Eur J Med Chem, 2020).

Data set [1] concerns the target T1, Protein cereblon/Bcl-2-like protein 1 (Homo sapiens, UniProt Q07817+Q96SW2). In words: Protac activity at CRBN/BCL-XL in human MOLT-4 cells assessed as induction of BCL-XL degradation at 33 to 1000 nM measured after 16 hrs by immunoblotting analysis. It counts as cell-based. The note with it: dose 33-1000 nM. (In western blotting, separated proteins are transferred to a membrane and probed.)
Target sequence in this assay (Q07817 whole entry, looked up): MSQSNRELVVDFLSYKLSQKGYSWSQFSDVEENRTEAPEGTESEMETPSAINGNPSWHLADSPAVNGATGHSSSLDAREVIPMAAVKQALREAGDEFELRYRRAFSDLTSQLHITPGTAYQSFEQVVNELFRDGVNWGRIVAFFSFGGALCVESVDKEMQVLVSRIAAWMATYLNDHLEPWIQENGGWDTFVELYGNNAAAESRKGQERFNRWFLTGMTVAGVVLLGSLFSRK
Target sequence in this assay (Q96SW2 whole entry, looked up): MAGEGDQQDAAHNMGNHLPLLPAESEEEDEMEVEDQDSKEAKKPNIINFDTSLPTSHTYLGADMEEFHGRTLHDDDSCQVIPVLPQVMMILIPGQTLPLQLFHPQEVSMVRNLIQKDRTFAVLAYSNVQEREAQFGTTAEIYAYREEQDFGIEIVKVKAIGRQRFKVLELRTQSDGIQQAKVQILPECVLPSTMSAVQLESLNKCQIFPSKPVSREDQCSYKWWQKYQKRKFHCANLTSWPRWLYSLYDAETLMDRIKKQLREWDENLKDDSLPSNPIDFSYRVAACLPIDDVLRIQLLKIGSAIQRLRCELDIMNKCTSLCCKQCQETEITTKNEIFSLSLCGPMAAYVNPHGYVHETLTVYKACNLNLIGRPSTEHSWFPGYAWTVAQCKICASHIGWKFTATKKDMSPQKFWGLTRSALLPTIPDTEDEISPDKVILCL

Data set [2] relates to MOLT-4. Put plainly: Antiproliferative activity against human MOLT-4 cells assessed as reduction in cell viability measured after 48 hrs by MTS assay. The data set is classed as functional, cell-based. The conditions noted are these: MOLT-4, 48 h. On the technique in general: Tetrazolium dyes change colour on reduction, which living cells bring about.
The test system of a further data set is RS4-11. In words: Antiproliferative activity against human RS4-11 cells assessed as reduction in cell viability measured after 48 hrs by MTS assay. The conditions noted are these: RS4-11, 48 h. It counts as functional, cell-based.
For a further data set, the system named is NCI-H146. In words: Antiproliferative activity against human NCI-H146 cells assessed as reduction in cell viability measured after 48 hrs by MTS assay. The data set is classed as functional, cell-based. The conditions noted are these: NCI-H146, 48 h.
Data set [3] in a line: Toxicity in human platelet assessed as reduction in cell viability measured after 48 hrs by MTS assay. The data set is classed as tissue-based. The note with it: human platelets.
Data set [4] is described as follows: Selectivity index, ratio of IC50 for human platelet to IC50 for human MOLT-4 cells.
In data set [5] the test system is MOLT-4. Put plainly: Induction of apoptosis in human MOLT-4 cells assessed as viable cells at 10 nM measured after 48 hrs by Alexa Fluor 647-Annexin V/propidium iodide staining based flow cytometry (reference value: 97.1 to 97.3%). The data set is classed as functional. The conditions noted are these: read-out: Activity. (A flow cytometer gives signals particle by particle.)

Data set [6] concerns MOLT-4. In words: Induction of apoptosis in human MOLT-4 cells assessed as early apoptotic cells at 10 nM measured after 48 hrs by Alexa Fluor 647-Annexin V/propidium iodide staining based flow cytometry (reference value: 1.5 to 1.7%). It counts as functional.
In data set [7] the test system is MOLT-4. In words: Induction of apoptosis in human MOLT-4 cells assessed as late apoptotic cells at 10 nM measured after 48 hrs by Alexa Fluor 647-Annexin V/propidium iodide staining based flow cytometry (reference value: 1.1 to 1.4%). It counts as functional.
The test system of data set [8] is MOLT-4. Put plainly: Induction of apoptosis in human MOLT-4 cells assessed as necrotic cells at 10 nM measured after 48 hrs by Alexa Fluor 647-Annexin V/propidium iodide staining based flow cytometry (reference value: 0.3 to 0.4%). The data set is classed as functional.
Data set [9] deals with MOLT-4. In words: Induction of apoptosis in human MOLT-4 cells assessed as viable cells at 100 nM measured after 48 hrs by Alexa Fluor 647-Annexin V/propidium iodide staining based flow cytometry (reference value: 97.1 to 97.3%). It counts as functional. The conditions noted are these: read-out: Activity.
For data set [10], the system named is MOLT-4. Put plainly: Induction of apoptosis in human MOLT-4 cells assessed as early apoptotic cells at 100 nM measured after 48 hrs by Alexa Fluor 647-Annexin V/propidium iodide staining based flow cytometry (reference value: 1.5 to 1.7%). The data set is classed as functional.
Data set [11] concerns MOLT-4. In words: Induction of apoptosis in human MOLT-4 cells assessed as late apoptotic cells at 100 nM measured after 48 hrs by Alexa Fluor 647-Annexin V/propidium iodide staining based flow cytometry (reference value: 1.1 to 1.4%). It counts as functional.
Data set [12] concerns MOLT-4. Put plainly: Induction of apoptosis in human MOLT-4 cells assessed as necrotic cells at 100 nM measured after 48 hrs by Alexa Fluor 647-Annexin V/propidium iodide staining based flow cytometry (reference value: 0.3 to 0.4%). The data set is classed as functional.
The subject of data set [13] is MOLT-4. In words: Induction of apoptosis in human MOLT-4 cells assessed as viable cells at 100 nM measured after 48 hrs in presence of pan-caspase inhibitor QVD by Alexa Fluor 647-Annexin V/propidium iodide staining based flow cytometry (reference value: 97.1 to 97.3%). It counts as functional. The conditions noted are these: read-out: Activity.
In data set [14] the test system is MOLT-4. In words: Induction of apoptosis in human MOLT-4 cells assessed as early apoptotic cells at 100 nM measured after 48 hrs in presence of pan-caspase inhibitor QVD by Alexa Fluor 647-Annexin V/propidium iodide staining based flow cytometry (reference value: 1.5 to 1.7%). The data set is classed as functional.
In data set [15] the test system is MOLT-4. Put plainly: Induction of apoptosis in human MOLT-4 cells assessed as late apoptotic cells at 100 nM measured after 48 hrs in presence of pan-caspase inhibitor QVD by Alexa Fluor 647-Annexin V/propidium iodide staining based flow cytometry (reference value: 1.1 to 1.4%). It counts as functional.
Data set [16] deals with MOLT-4. Put plainly: Induction of apoptosis in human MOLT-4 cells assessed as necrotic cells at 100 nM measured after 48 hrs in presence of pan-caspase inhibitor QVD by Alexa Fluor 647-Annexin V/propidium iodide staining based flow cytometry (reference value: 0.3 to 0.4%). It counts as functional.
In data set [17] the target is T2, von Hippel-Lindau disease tumor suppressor/Bcl-2-like protein 1 (Homo sapiens, UniProt Q07817+P40337). In words: Protac activity at VHL/BCL-XL in human MOLT-4 cells assessed as induction of BCL-XL degradation measured after 16 hrs by immunoblotting analysis. It counts as cell-based.
Target sequence in this assay (Q07817 whole entry): as the sequence (Q07817 whole entry, looked up) above
Target sequence in this assay (P40337 whole entry): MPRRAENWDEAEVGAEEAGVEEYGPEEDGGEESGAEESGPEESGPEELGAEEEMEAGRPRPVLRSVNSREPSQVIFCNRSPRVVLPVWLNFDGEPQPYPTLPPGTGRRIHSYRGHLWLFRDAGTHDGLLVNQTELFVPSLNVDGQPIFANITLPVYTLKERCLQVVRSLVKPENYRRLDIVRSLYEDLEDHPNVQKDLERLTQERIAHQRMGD
Data set [18] addresses T2, von Hippel-Lindau disease tumor suppressor/Bcl-2-like protein 1. Put plainly: Protac activity at VHL/BCL-XL in human MOLT-4 cells assessed as induction of BCL-XL degradation by measuring remaining BCL-XL level at 100 nM measured after 16 hrs by immunoblotting analysis relative to control. It counts as cell-based.
Target sequence in this assay (P40337 whole entry, looked up): as the sequence (P40337 whole entry) above
Target sequence in this assay (Q07817 whole entry, looked up): as the sequence (Q07817 whole entry, looked up) above
Data set [19] addresses von Hippel-Lindau disease tumor suppressor/Apoptosis regulator Bcl-2 (Homo sapiens) (UniProt P10415+P40337). Put plainly: Protac activity at VHL/BCL2 in human MOLT-4 cells assessed as induction of BCL2 degradation at 100 nM measured after 16 hrs by immunoblotting analysis. The data set is classed as cell-based.
The target in data set [20] is T1, Protein cereblon/Bcl-2-like protein 1. Put plainly: Protac activity at CRBN/BCL-XL in human MOLT-4 cells assessed as induction of BCL-XL degradation measured after 16 hrs by immunoblotting analysis. It counts as cell-based.
Target sequence in this assay (Q07817 whole entry): as the sequence (Q07817 whole entry, looked up) above
Target sequence in this assay (Q96SW2 whole entry): as the sequence (Q96SW2 whole entry, looked up) above
The target is the same in data set [21]. In words: Protac activity at CRBN/BCL-XL in human MOLT-4 cells assessed as induction of BCL-XL degradation by measuring remaining BCL-XL level at 50 nM measured after 16 hrs by immunoblotting analysis relative to control. It counts as cell-based.
Target sequence in this assay (Q07817 whole entry, looked up): as the sequence (Q07817 whole entry, looked up) above
Target sequence in this assay (Q96SW2 whole entry, looked up): as the sequence (Q96SW2 whole entry, looked up) above
Data set [22] concerns the target Protein cereblon/Apoptosis regulator Bcl-2 (Homo sapiens) (UniProt P10415+Q96SW2). Put plainly: Protac activity at CRBN/BCL2 in human MOLT-4 cells assessed as induction of BCL2 degradation at 50 nM measured after 16 hrs by immunoblotting analysis. The data set is classed as cell-based.
In data set [23] the test system is MOLT-4. In words: Potency index, ratio of ABT-263 IC50 to test compound IC50 for antiproliferative activity against human MOLT-4 cells assessed as reduction in cell viability measured after 48 hrs by MTS assay. The data set is classed as functional.

Activity calls are given as the source filed them. The rule behind the calls is not given here. A value given as a limit tells only on which side of the number the result lay.

Sequence of von Hippel-Lindau disease tumor suppressor/Apoptosis regulator Bcl-2 (Homo sapiens) (P10415 whole entry, looked up): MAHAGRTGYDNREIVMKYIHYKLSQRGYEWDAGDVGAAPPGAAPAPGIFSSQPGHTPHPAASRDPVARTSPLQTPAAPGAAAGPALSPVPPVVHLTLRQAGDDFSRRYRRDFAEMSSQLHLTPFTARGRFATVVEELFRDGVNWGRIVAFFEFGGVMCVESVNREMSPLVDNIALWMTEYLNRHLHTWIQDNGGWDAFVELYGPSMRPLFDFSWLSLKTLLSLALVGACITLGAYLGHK
Sequence of von Hippel-Lindau disease tumor suppressor/Apoptosis regulator Bcl-2 (Homo sapiens) (P40337 whole entry, looked up): as the sequence (P40337 whole entry) above
Sequence of Protein cereblon/Apoptosis regulator Bcl-2 (Homo sapiens) (P10415 whole entry, looked up): as the sequence (P10415 whole entry, looked up) above
Sequence of Protein cereblon/Apoptosis regulator Bcl-2 (Homo sapiens) (Q96SW2 whole entry, looked up): as the sequence (Q96SW2 whole entry, looked up) above

In the case of `CN(CCOCCOCCOCCNc1cccc2c1C(=O)N([C@@H]1CCC(=O)N(C)C1=O)C2=O)CC[C@H](CSc1ccccc1)Nc1ccc(S(=O)(=O)NC(=O)c2ccc(N3CCN(CC4=C(c5ccc(Cl)cc5)CCC(C)(C)C4)CC3)cc2)cc1S(=O)(=O)C(F)(F)F`, the result in [1] was inactive.

As to `CN(C)CC[C@H](CSc1ccccc1)Nc1ccc(S(=O)(=O)NC(=O)c2ccc(N3CCN(Cc4ccccc4-c4ccc(Cl)cc4)CC3)cc2)cc1[N+](=O)[O-]` [ABT 737], the concentration for half-maximal inhibition (IC50) with MOLT-4 [2] was determined as 227 nM; with RS4-11, 49 nM; in the data set on NCI-H146, 43.8 nM. Also, in [3], the IC50 at 48 h is 242 nM. For the same compound, the “Ratio IC50” value in data set [4] came to 1.1. Further, the viability at 0.01 µM in the data set with MOLT-4 [5] stood at 96%. In addition, the Activity in the data set on MOLT-4 [6] is reported as 2.5%; in the data set on MOLT-4 [7], 1.4%; in the data set with MOLT-4 [8] it was 0.1%; in the data set with MOLT-4 [10] it was 47.4%; with MOLT-4 [11] it was 11.6%; in the data set with MOLT-4 [12], 0.4%. Further, the Activity was 2.6% in the data set on MOLT-4 [14], 8.6% with MOLT-4 [15] and 5.4% with MOLT-4 [16]. Besides, the values for the viability at 0.1 µM in the data set on MOLT-4 [9] and in the data set on MOLT-4 [13] were 40.7% and 83.1%, respectively.

`Cc1ncsc1-c1ccc([C@H](C)NC(=O)[C@@H]2C[C@@H](O)CN2C(=O)[C@@H](NC(=O)CCCCCN2CCN(CC[C@H](CSc3ccccc3)Nc3ccc(S(=O)(=O)NC(=O)c4ccc(N5CCN(CC6=C(c7ccc(Cl)cc7)CCC(C)(C)C6)CC5)cc4)cc3S(=O)(=O)C(F)(F)F)CC2)C(C)(C)C)cc1`: the DC50 in data set [17] was 93 nM. The results for the IC50 in the data set on MOLT-4 [2], in the data set on RS4-11 and with NCI-H146 were 82 nM, 76 nM and 203 nM, respectively. Moreover, the Activity in data set [18] is 43%. The result in [19] was inactive. Moreover, in [3], the IC50 at 48 h was above 10000 nM. In addition, in [4], the “Ratio IC50” value is above 122.

Take `CC1(C)CCC(c2ccc(Cl)cc2)=C(CN2CCN(c3ccc(C(=O)NS(=O)(=O)c4ccc(N[C@H](CCN5CCN(CCOCCOCCOCCNc6cccc7c6C(=O)N([C@@H]6CCC(=O)NC6=O)C7=O)CC5)CSc5ccccc5)c(S(=O)(=O)C(F)(F)F)c4)cc3)CC2)C1`: the DC50 in data set [20] came to 4.5 nM. The results for the half-maximal inhibitory concentration (IC50) in the data set on MOLT-4 [2], in the data set on RS4-11 and with NCI-H146 were 17.3 nM, 38.5 nM and 24.6 nM, respectively. The Activity in data set [21] amounted to 5%. Also, the result in data set [22] was inactive. The “Ratio IC50” value is given as 12 in the data set with MOLT-4 [23] and 90 in data set [4]. For the same compound, in data set [3], the IC50 at 48 h is 1560 nM.

In the case of `Cc1ncsc1-c1ccc([C@H](C)NC(=O)[C@@H]2C[C@@H](O)CN2C(=O)[C@@H](NC(=O)CCCCCC(=O)N2CCN(CC[C@H](CSc3ccccc3)Nc3ccc(S(=O)(=O)NC(=O)c4ccc(N5CCN(CC6=C(c7ccc(Cl)cc7)CCC(C)(C)C6)CC5)cc4)cc3S(=O)(=O)C(F)(F)F)CC2)C(C)(C)C)cc1` [DT-2216], the DC50 in data set [17] was found to be 53 nM. In addition, the IC50 with MOLT-4 [2] amounted to 77.1 nM; in the data set with RS4-11 it was 213 nM; with NCI-H146 it was 278 nM. The Activity in [18] stood at 14%. Besides, the outcome in data set [19] was inactive. The concentration for half-maximal inhibition (IC50) at 48 h in data set [3] is above 10000 nM. Also, the “Ratio IC50” value in [4] is recorded as above 130.

On to `Cc1ncsc1-c1ccc([C@H](C)NC(=O)[C@@H]2C[C@@H](O)CN2C(=O)[C@@H](NC(=O)CCCCCCN(C)CC[C@H](CSc2ccccc2)Nc2ccc(S(=O)(=O)NC(=O)c3ccc(N4CCN(CC5=C(c6ccc(Cl)cc6)CCC(C)(C)C5)CC4)cc3)cc2S(=O)(=O)C(F)(F)F)C(C)(C)C)cc1`, for which the 50% degradation concentration (DC50) in [17] turned out to be 71 nM. For the same compound, the IC50 in the data set on MOLT-4 [2] stood at 81.3 nM; in the data set with RS4-11 it was 189 nM; in the data set on NCI-H146, 265 nM. The Activity in data set [18] was 28%. The result in data set [19] was inactive. Moreover, the IC50 at 48 h in [3] is above 10000 nM. Further, the “Ratio IC50” value in data set [4] is above 123.

What is called IC50 is the concentration that gives 50% inhibition. One may read the DC50 as the midpoint of the concentration-degradation curve.
